# Results from PMC11213822, “Copper resistance in the cold: Genome analysis and characterisation of a PIB‐1 ATPase in Bizionia argentinensis” (Environmental Microbiology Reports, 2024).
# B1: BaCopA1 (Bizionia argentinensis JUB59) (protein)
# chain: MTCNGCRSHVEEILSKVKYVLKASVDLEKEEATIEMESHIPIEKFQNALKNDGGRYSIHKNPLPGSPKGRSNKTDKSKSEKSPLRGLGDTFYCPMHCEGDKIYDKPGDCPVCGMDLVEEQNLSTSNSEQWTCPMHPEVVKDEAGPCPICGMDLVPMQADSSAEEKTYKKLLKKFWIASIFTLPIFIMAMSEMLTNNPLYDIMDQKNWNWVQFALSIPVVFYATWMFFERAYKSIKTWNLNMFTLIGIGAGVAWLFSVFGMFFPDVFPSQFRSESGAVHVYFEAATVILTLVLLGQLLEARAHSKTNSAVKELLKLAPNKATKVVNGEDVEVSIDNIELNDILKVKPGDKIPVDGVITEGVTTIDESMITGEPVPVDKTEGDKVSSGTINGNQSFLMKAEKVGSHTLLSQIIHMVNTASRSRAPIQNLADKVSGYFVPVVVLISLITFAVWAIWGPEPAYVYALVNAIAVLIIACPCALGLATPMSVMVGVGKGAQNGVLIKNAEALEKLDKVDTLIVDKTGTITEGKPTVEKMGAFSDVFSESDVLQYIVSLNSNSEHPLAEATVKYGKEQKAEIIKSDAFSAVTGKGVEATINNKKVALGNPKMMEYAQAEITSQMQDEAKTYQKQGKTVSYLAIDKIVIGYVVIGDKIKATSAKAIKELQDKGIAVIMLTGDNHDTAQAVASELNLADFKASMLPEDKLKEVEKLQKEGKVVAMAGDGINDAPALAKSDVGIAMGTGTDVAIESAMITLVKGDLNGIVKAKHLSHAVMKNIKQNLFFALIYNTLGVPIAAGVLFPIFGILLSPMIAALAMSFSSVSVIANALRLRTIKI
# Assays:
# BaCopA1 = target: T1, BaCopA1 (Bizionia argentinensis, UniProt G2EDW3); test: time course of Pi release, malachite green; type: biochemical; conditions: 2.0 mM ATP, 2.0 mM MgCl2, 0.1 mM CuSO4, 20 mM cysteine, pH 8.0, 5 °C; 10 μM vanadate
# T1 construct: gene BZARG_1779; C-terminal TEV site-GFP-His tag not removed (tag printed as His6 and his8); expressed in S. cerevisiae FGY217, detergent-solubilised, Ni-NTA purified in C12E10
# purified protein = substrate: Nc1ncnc2c1ncn2[C@@H]1O[C@H](COP(=O)(O)OP(=O)(O)OP(=O)(O)O)[C@@H](O)[C@H]1O; test: purified protein; conditions: free Mg2+ 0.25 mM, 0.1 mM CuSO4, 20 mM cysteine, asolectin/C12E10, pH 8.0, 5 °C
molecule,measurement,setting,value
[O]=[V]([OH])([OH])[OH] [vanadate],inhibition at 10 μM,BaCopA1,an inhibitory effect of ATPase activity occurs with the addition of vanadate
B1,Km,purified protein,150 ± 30 µM
